“Also recorded” adds a separate entry of the source.
Experiments:
[1] = tested on: Ras; test: Ras activation assay, MDCK-B7 cells; type: cell-based, canine
Protocol: (§1) Matrigel invasion assay. Into the Biocoat Matrigel invasion chambers (BD Biosciences) were seeded 4×10^4 cells in 2% FBS medium, and in the lower wells 10% FBS was added as the chemoattractant. After 36 hours of incubation, the filters were stained with crystal violet, and the number of cells that had penetrated through the filter was counted under ×20 magnification (10 randomly selected high-power fields). For inhibition of invasion assays, the FGF receptor inhibitor Su5402 (40 μmol/L), the MAPK/extracellular signal-regulated kinase kinase (MEK) inhibitor U0126 (10 μmol/L), and the Raf inhibitor Bay43-9006 (4 μmol/L; Calbiochem, San Diego, Calif.) were added to the medium in the top chamber at the final concentrations indicated. Ras and RhoA activation assay. Cell lysates were incubated with glutathione S-transferase (GST)-Raf-1 Ras binding domain or GST-Rhotekin RhoA binding domain agarose beads (Upstate, Charlottesville, Va.). GTP-bound Ras or RhoA that precipitated with the beads were detected by SDS-PAGE and immunoblotting with anti-Ras antibody (Santa Cruz Biotechnology) or anti-RhoA antibody (Upstate).

[2] = tested on: MDCK-B7 cells; test: Matrigel invasion assay, pooled MDCK-B7 cells; type: cell-based, canine; conditions: Su5402 40 μmol/L; for invasive phenotype / invasive ability of MDCK-B7 cells: 36 hours, Bay43-9006 4 μmol/L, U0126 10 μmol/L, either inhibitor alone or in combination
Protocol: as §1

[3] = tested on: EGFR/HER2 and ERα signaling; test: Immunoblot of EGFR/HER2, MAPK, ERα signaling in MCF-7-B7 cells; type: cell-based, human
[4] = tested on: Her2/Hoxb7 transgenic mouse mammary tumor cells; test: Sensitivity to anti-ER drugs, Her2/Hoxb7 transgenic mouse mammary tumor cells; type: cell-based
[5] = tested on: MCF-7-B7 cells; test: Xenograft of MCF-7-B7 cells in athymic mice; type: in vivo; conditions: absence of exogenous estrogen supplement
Protocol: 3×10^6 cells of MCF-7-vec or MCF-7-B7 were suspended in 100 μl PBS/Matrigel (1:1) and injected s.c into the female 3- to 4-week-old BALB/c nu/nu athymic mice (Harlan, Sprague Dawley, Madison, Wis.), which simultaneously received a 60-day slow release pellet containing 0.72 mg of 17β-estradiol and/or 5 mg tamoxifen (Innovative Research of America, Southfield, Mich.). Fulvestrant was dissolved in 100% ethanol and diluted in sesame oil; 5 mg was injected s.c. twice a week^20. Animals were observed once a week. At necropsy, primary tumors, liver, lung and spleen were evaluated for the presence of macroscopic tumors. Tissue samples of the primary tumor and organs were fixed in 4% paraformaldehyde and stained with H&E to assess histomorphology.

[6] = tested on: Her2 positive transgenic mammary tumor cells; test: Sensitivity to anti-ER drugs, Her2 positive transgenic mammary tumor cells; type: cell-based, mouse; conditions: cells do not express ER
[7] = tested on: MCF-7-B7 cells; test: Soft agar colony formation, MCF-7-B7 cells; type: cell-based, human
[8] = tested on: MCF-7-TMR cells; test: Colony formation and ERE-Luc activity, MCF-7-TMR cells; type: cell-based, human
[9] = tested on: LTED cells; conditions: Martin La., 2005; cited from earlier work
[10] = tested on: EGFR, HER2, ERα and HOXB7; test: Immunoblot of EGFR, HER2, ERα, HOXB7 in long-term tamoxifen treated MCF-7 (MCF-7-TMR) cells; type: cell-based, human
[11] = in the clinic; cited from earlier work
[12] = tested on: TGFα and HB-EGF; test: Immunoblot of TGFα and HB-EGF in MCF-10A-B7 cells; type: cell-based, human; conditions: 0.1 μM AG1478, 24 hours
[13] = tested on: BT474 cells; test: Soft agar colony formation, BT474 cells; type: cell-based, human; conditions: 1 μM gefitinib and 1 μM tamoxifen
[14] = tested on: HOXB7 promoter region; test: CHIP analysis of T47D cells, HOXB7 promoter region; type: cell-based, human; conditions: 1 μM tamoxifen, 45 min
[15] = tested on: HOXB7, EGFR and HER2; test: HOXB7, EGFR, HER2 expression in T47D cells upon tamoxifen; type: cell-based, human
[16] = tested on: ERE-luc reporter; test: ERE-tk-Luc reporter assay, MCF-7-B7 cells; type: cell-based, human; conditions: 100 nM tamoxifen, 10 nM E2, 24 h
Protocol: Transient transfection was performed with the respective promoter-luciferase constructs. Results were normalized to the level of B-galactosidase activity in the samples. The EGFR promoter reporter plasmids were a kind gift of Dr. Alfred C. Johnson (Bethesda, Md.). ERE-tk-LUC was a generous gift from Dr. Elaine Alarid (Madison, Wis.).

[17] = tested on: EGFR/HER2 and ERα signaling; test: Immunoblot of EGFR/HER2, MAPK, ERα signaling in MCF-7-vec cells; type: cell-based, human; conditions: 1 μM tamoxifen, estrogen deprived medium, 48 hours
[18] = MCF-7 cells, 0.1 μM tamoxifen over time (0, 2, 4, 6 months)
[19] = MCF-7 cells, 1 μM or 0.1 μM tamoxifen for at least 6 months

Cc1c[nH]c(/C=C2\C(=O)Nc3ccccc32)c1CCC(=O)O [Su5402]
active form Ras (Ras-GTP form) [1]: attenuate
invasive phenotype / invasive ability of MDCK-B7 cells [2]: reduce
inhibition of invasion ability of MDCK-B7 cell [2]: ~80%

CNC(=O)c1cc(Oc2ccc(NC(=O)Nc3ccc(Cl)c(C(F)(F)F)c3)cc2)ccn1 [Bay43-9006]
invasive phenotype / invasive ability of MDCK-B7 cells [2]: complete suppression
invasive phenotype / invasive ability of MDCK-B7 cells ([2]; listed as BAY 43-9006): block

C[C@]12CC[C@@H]3c4ccc(O)cc4C[C@@H](CCCCCCCCC[S+]([O-])CCCC(F)(F)C(F)(F)F)[C@H]3[C@@H]1CC[C@@H]2O (stereo partly shown) [fulvestrant]
levels of the autocrine/paracrine EGFR ligands (Amphiregulin and TGFα) ([3]; 1 μM fulvestrant, 24 h): significant reduction
HOXB7 overexpression-related increases in EGFR and p44/42 MAPK activity ([3]; fulvestrant treatment): reduced
response to treatment [4]: strongly respond
tumor formation in vivo ([5]; fulvestrant 10 mg/week): reduced
response to treatment [6]: did not respond
sensitivity to fulvestrant treatment in vitro ([7]; MCF-7-B7, 1 μM Fulvestrant): remained sensitive
HOXB7-promoted colony formation in vitro ([7]; in a dose-dependent manner): reduced
sensitivity to fulvestrant treatment in vitro ([8]; MCF-7-TMR, 1 μM Fulvestrant): remained sensitive
sensitivity of LTED cells [9]: sensitive
expression of EGFR and HER2 ([10]; MCF-7-TMR cells, 1 μM fulvestrant, 24 h): significantly reduced
HOXB7 levels ([10]; MCF-7-TMR cells, 1 μM fulvestrant, 24 h, vs vehicle): lower
tamoxifen-relapsed / tamoxifen-resistant patients who respond [11]: nearly two-thirds

N#CC(=C(/N)Sc1ccccc1N)/C(C#N)=C(\N)Sc1ccccc1N [U0126]
invasive phenotype / invasive ability of MDCK-B7 cells [2]: complete suppression; also recorded: block

COc1cc2ncnc(Nc3cccc(Cl)c3)c2cc1OC [AG1478]
elevated expression of TGFα and HB-EGF [12]: significantly abrogated

COc1cc2ncnc(Nc3ccc(F)c(Cl)c3)c2cc1OCCCN1CCOCC1 [gefitinib]
sensitivity of the cells to tamoxifen treatment ([7]; 1 μM tamoxifen in combination with 1 μM gefitinib): significantly re-sensitized
effect on tamoxifen action in BT474 cells [13]: dramatically converted tamoxifen from a partial agonist to a potent antagonist

CC/C(=C(\c1ccccc1)c1ccc(OCCN(C)C)cc1)c1ccccc1 [tamoxifen]
effect on the expression of Cyclin D1 and Bcl-2 ([3]; 1 μM tamoxifen, 48 hours): potent estrogen-like agonistic effect
p44/42 MAPK activity and phosphorylation of ERα at serine 118 ([3]; 1 μM tamoxifen, 48 hours): increased
active forms of EGFR and HER2 ([3]; 1 μM tamoxifen, estrogen deprived medium, 48 hours): significantly higher level
activation of p44 MAPK and ER phosphorylation at Ser 118 site ([3]; 1 μM tamoxifen, short period, MCF-7-B7): potently stimulates
levels of active forms of EGFR and HER2 ([3]; 1 μM tamoxifen, short period, estrogen deprived): elevated levels
response to treatment [4]: not responding
effect on established tumors of MCF-7-B7 cells in nude mice ([5]; tamoxifen 83.3 μg/day): no inhibitory effect
response to treatment [6]: did not respond
growth (colonies in soft agar) ([7]; estrogen-deprived conditions, tamoxifen 1 μM): enhanced
sensitivity to the inhibitory effects of tamoxifen in culture ([7]; tamoxifen 1 μM, complete medium): loss of sensitivity
binding of ERα to HOXB7 promoter region [14]: promoted binding
expression of HOXB7 ([15]; 1 μM tamoxifen, short-term): increased expression
expression levels of EGFR and HER2 ([15]; tamoxifen): induced
resistance to tamoxifen treatment (colony formation and ERE-Luc activity) ([8]; 100 nM tamoxifen): significant resistance
sensitivity of LTED cells [9]: refractory
attenuation of estrogen-stimulated ERE-luc reporter activity [16]: inability
increase of active form of HER2 [17]: about 1.5 fold
levels of the active form of EGFR [17]: reduction
expression of EGFR/HER2 and ERα [10, 18]: concomitant increases
levels of expression of HOXB7 [10, 18]: progressively increasing levels
HOXB7 expression level [10, 19]: potently elevated
expression of EGFR, HER2 and ERα [10, 19]: elevated expression

From patent US20130333059A1, “HOX COMPOSITIONS AND METHODS” (THE JOHNS HOPKINS UNIVERSITY, priority 2006, published 2013)
